Assays:
[1] = HPLC quantification of Z and SE isomers generated in the solution after dissolution; format: physicochemical; details: in ethanol solution after dissolution of all crystals
Description: (§1) Ethanol containing 10% water was added to luliconazole, followed by being heated, stirred, and filtrated while applying the heat. A filtrate was quickly cooled with an ice bath and the wall surface was scraped with a spatula to perform the recrystallization. Crystals were collected by filtration, followed by being dried by using phosphorus pentaoxide to obtain Crystal 1 of the present invention. In distinct Comparative Example, the same process or treatment was performed while replacing the solvent with a mixture of ethyl acetate/n-hexane (5:1) to obtain Crystal of Comparative Example. The elution or dissolution test was performed for the two types of the crystals to investigate the elution or dissolution profile. After confirming the dissolution of all crystals, the Z isomer and the SE isomer, which were the isomers generated or formed in the solution, were analyzed and quantitatively measured by HPLC assay.
(§2) In the elution or dissolution test, 500 mL of anhydrous ethanol was used as the solvent, and 1 g of luliconazole was dissolved under constant stirring at room temperature. The time, which was required for the dissolution, was simultaneously measured. According to Table 1, it is appreciated that the time required for the dissolution is short for Crystal 1, and thus the generation of the Z isomer and the SE isomer as the isomers is suppressed in the dissolving step.
The condition for HPLC was as follows. Column: CHIRALCEL OD-RH 4.6×150 mm, column temperature: 35° C., mobile phase: mixture of methanol/2% aqueous solution of potassium hexafluorophosphate (85:15, v/v), flow rate: 0.6 mL/min., detection: 295 nm).

[2] = Elution or dissolution test of luliconazole crystals in anhydrous ethanol; format: physicochemical; details: 1 g luliconazole in 500 mL anhydrous ethanol, constant stirring, room temperature
Description: as §1, §2

Amount of generation of SE isomer [1] [%] | Amount of generation of Z isomer [1] [%] | Time required until dissolution [2] [min] | SMILES
0.06 | 0.06 | 200 | N#C/C(=C1/SC[C@@H](c2ccc(Cl)cc2Cl)S1)n1ccnc1 [Crystal 1, luliconazole]
0.09 | 0.13 | 300 | N#C/C(=C1/SC[C@@H](c2ccc(Cl)cc2Cl)S1)n1ccnc1 [Crystal of Comp. Ex., luliconazole]

— patent publication US9199977B2, “Crystal having crystal habits and pharmaceutical composition obtained by processing the crystal” (POLA PHARMA INC., priority 2012, dated 2015)
